Experimental data: PubChem BioAssay (NCI)
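All cell lines were grown in 96-well plates and treated with compound for 48 hours. At the TGI there is no net growth.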 Where a SMILES comes first, the peptide text is derived from it. Bridges are numbered along the chain shown (N, C = ends). The star is where a group is joined. Cbz = O=C(OCc1ccccc1)*

Legend:
Assay in all cases: NCI-60 cell line screen, 48 h
[1] = system: SF-268 CNS
[2] = system: RPMI-8226 leukemia
[3] = system: COLO 205 colon
[4] = system: UACC-257 melanoma
[5] = system: EKVX NSCLC
[6] = system: SK-MEL-5 melanoma
[7] = system: SF-295 CNS
[8] = system: NCI-H226 lung
[9] = system: HT29 colon
[10] = system: 786-0 renal
[11] = system: M14 melanoma
[12] = system: HS 578T breast
[13] = system: ACHN renal
[14] = system: SF-539 CNS

Compound	TGI [1] [µM]	TGI [2] [µM]	TGI [3] [µM]	TGI [4] [µM]	TGI [5] [µM]	TGI [6] [µM]	TGI [7] [µM]	TGI [8] [µM]	TGI [9] [µM]	TGI [10] [µM]	TGI [11] [µM]	TGI [12] [µM]	TGI [13] [µM]	TGI [14] [µM]
Cc1cn2cc(-c3cccs3)nc2s1	> 100	> 100	> 100	> 100	> 100	> 100	> 100	> 100	> 90.1	> 100	> 100	> 100	> 100	> 100
O=C1CSC(c2c[nH]c3ccccc23)N1c1cccc(Cl)c1 (configuration not stated)	> 100	54.7	> 100	> 100	> 100	> 100	> 100	> 100	> 100	47.1	> 100	> 100	> 100	> 100
C[N+]1(C)C2CC(OC(=O)C(CO)c3ccccc3)CC1C1OC12 (configuration not stated)	–	> 100	> 100	> 100	> 100	> 100	> 100	> 100	> 100	> 100	> 100	> 100	> 100	> 100
CCNC1=C(NC(=O)c2ccc(F)cc2)C(=O)c2ccccc2C1=O	> 100	> 100	> 100	46.9	> 100	> 100	> 100	> 100	53.6	> 100	63.5	> 100	> 100	> 100
C=C1CC[C@](C)(O)[C@@]2(C)CC[C@H]3C(=C(C)C)C(=O)C[C@]3(C)C[C@H]12	> 50	> 50	> 50	> 50	> 50	> 50	> 50	> 50	> 50	> 50	> 50	> 50	> 50	> 50
C#CCOC(=O)C(N)CC(N)=O (configuration not stated)	> 100	> 100	> 100	> 100	> 100	> 100	> 100	> 100	> 31.6	> 100	> 100	> 100	> 100	> 100
Cc1ccc2c(c1C)C(=O)C1(C2)Cc2ccc3c(c2C1=O)CCC3 (configuration not stated)	> 100	> 100	> 100	> 100	> 100	> 100	> 100	> 100	> 100	> 100	> 100	> 100	> 100	> 100
COc1ccc(/C=C/C(=O)c2cc(OC)cc(OC)c2)cc1	16.4	26.1	16.8	26.9	20	24.2	7.23	31.6	4.96	11.2	6.83	15.1	17.7	7.93
Cc1ccc(-c2n[nH]c(=O)n2/N=C\c2ccccc2O)cc1	> 100	> 100	> 100	> 100	> 100	> 100	> 100	> 100	> 100	> 100	> 100	> 100	> 100	> 100
C=C1c2nc3ccccc3n2C=C(c2ccc(OC)cc2)N1c1ccc(OCCN2CCCCC2)cc1	> 100	18.1	36.4	10.8	> 100	> 58.5	> 100	> 96.7	43.3	> 52.5	> 100	> 100	> 81.7	81.2
CCCN(CCC)C(=S)Sc1nc(C)nc(N2CCN(c3nc(C)nc(SC(=S)N(CCC)CCC)c3[N+](=O)[O-])CC2)c1[N+](=O)[O-]	98.5	> 38.2	19	54.2	> 83	28.2	> 58.1	> 62.2	21.7	> 53	60.9	> 100	40.9	> 80.6
NC(N)=N/N=C/c1c(-c2ccccc2[N+](=O)[O-])nc2sccn12	> 100	42.8	29.4	35.6	> 100	30.8	50	39.1	81.6	35.3	31.2	> 100	> 100	37.6
CC(C#N)(c1ccccc1)N(CCc1ccccc1)C(=O)Oc1ccccc1 (configuration not stated)	> 100	> 100	> 100	> 100	> 100	> 100	> 100	> 100	> 100	> 100	> 100	> 100	> 100	> 100
CC1=C(O)C(=O)C=C2C1=CC=C1[C@@]2(C)CC[C@@]2(C)C3C[C@@H](C)C(=O)[C@@H](O)[C@]3(C)CC[C@]12C (some centres not stated)	11	5.08	3.05	7.46	4.12	12.7	13.4	11.1	3.79	2.36	3.26	> 84.8	3.07	4.33
C=CCN1C(=O)CC2[C@@H]3CCc4cc(O)ccc4C3CC[C@]2(C)C1=O (some centres not stated)	> 10	> 10	> 10	> 10	> 10	> 10	> 10	> 10	> 10	> 10	> 10	> 10	> 10	> 10
COc1cc2c(cc1OS(C)(=O)=O)N=C[C@@H]1CCCN1C2=O	> 100	> 100	> 100	> 100	> 100	> 100	> 100	> 100	> 100	> 100	> 100	> 100	> 100	> 100
N#Cc1cc2c(cc1C#N)SCCSCCCSCCS2	29.9	> 100	> 100	> 100	> 100	> 100	18.3	> 84.8	> 100	19	> 100	28.8	19.4	43.2
CC(C)(C)C(=O)/C=C(\OB(F)F)C(C)(C)C	> 100	> 100	> 100	> 100	> 100	> 100	> 100	> 100	> 100	> 100	> 100	> 100	> 100	> 100
CNC(=O)C1CCCCNC(=O)CCC(NC(=O)OCc2ccccc2)C(=O)N1 (stereo not drawn) (Cbz-Glu-Lys-NHMe; lactam 1-2; configuration not given here)	> 100	> 100	> 100	> 100	> 100	> 100	> 100	> 100	> 100	> 100	> 100	> 100	> 100	> 100
CC(C)=CCC[C@@H](C)[C@H]1CC[C@@]2(C)[C@@H]3CC[C@H]4C(C)(C)[C@@H](O)CC[C@@]45C[C@@]35CC[C@]12C	> 76.4	> 88.7	> 100	> 100	> 88.8	> 64.4	> 78.7	> 74.5	> 100	> 61.6	> 85.1	> 100	> 73.1	> 70.9
CCCCCCCCCCCCCCCCOCC(COP(=O)(O)OCC1OC(n2cc(CC)c(=O)[nH]c2=O)CC1O)OC(=O)CCCCCCCCCCCCCCC (configuration not stated)	> 100	> 100	> 100	> 100	> 100	–	> 100	> 100	> 100	> 100	> 100	> 100	> 100	> 100
COC1=C(C(c2cc(OC)c(OC)c(OC)c2)c2cc3c(cc2OC)OCO3)C(=O)OC1 (configuration not stated)	> 79.8	> 100	53.2	> 100	> 81.6	> 62.6	51.4	79.7	51.4	65.4	63.6	> 58.4	> 79.3	41.2
O=C1c2cc(Br)ccc2-c2ccc3c4ccc5c6c(ccc(c7ccc1c2c73)c64)C(=O)c1cc(Br)ccc1-5	> 100	> 100	> 100	> 100	> 100	> 100	–	> 100	> 100	> 100	> 100	> 100	> 100	> 100
O=C(CNc1ccccc1[N+](=O)[O-])Nn1cnc2ccc(S(=O)(=O)Nc3ccccc3[N+](=O)[O-])cc2c1=O	> 100	> 100	> 100	> 100	> 100	–	> 100	> 100	> 100	> 100	> 100	> 100	> 100	> 100
